From patent US20040242676A1, “Method of mitigating the adverse effects of IL-2” (priority 2003, published 2004)
Like-named read-outs stand apart in the source and are kept apart here.

Experiments:
[1] = Dissolution of LMP and HMP forms as a function of pH; assay type: physicochemical; conditions: for Dissolution (%): 10 mg in 100 mL water, 37° C., 15 mins; for AUC of dissolution over the range of pH: pH 1.2 to 7.5
Description: The LMP and HMP forms of the LBA of formula (I) were prepared in accordance with a process described in Examples 1 and 2, respectively. The pH of each of multiple 100 mL aliquots of distilled water was adjusted within the range of 1.2 to 7.5. Ten mg of either the LMP or HMP forms, finely ground with mortar and pestle, were placed into separate aliquots and then stirred at 37° C. for 15 mins. The dissolution characteristic of the LMP and HMP forms was measured at each pH and expressed as a percentage of the whole. Areas-under-the curve (AUCS) were calculated over the range of pH values tested. [Since the ordinate values are expressed as % dissolution and the abscissa values are expressed as pH units, then the units of AUC is expressed as the product of % dissolution times pH units or, alternatively, “%·log[[…]]” Results appear below in Table 2.

Human subjects = assay: Effect of LMP LBA and HMP LBA on hepatotoxicity in humans (alanine aminotransferase); assay type: in vivo
Description: Human subjects between the ages of 18 and 70 received every 8 hours single capsules containing either the LMP LBA or the HMP LBA form. The drug is prepared as a fine powder and then mixed as drug/excipients at 20/80 wt %/wt % where excipients consist of equal weights of lactose and hydroxypropyl methylcellulose. The intention of dosing was to examine the effect of increasing doses of each LBA on safety and tolerability. Standard laboratory parameters were measured, including complete blood count, chemistry panel 20, urinary analysis, and electrocardiogram (ECG). Measurements of the laboratory tests were made daily except for the ECG which was measured at baseline, 1 week, and 1 week after cessation of dosing. There were no differences in the safety profiles with the exception of liver function testing.
Because the liver plays a central role in the metabolism of drugs, the effect a drug has on liver function is an important effect to consider. An indicator of an adverse effect that a drug may have on the liver is the peak change from baseline of alanine aminotransferase (ALT). […] A significant increase of ALT is generally an increase of more than 2.

[2] = Pharmacokinetics of suspension and solution in the rat; assay type: in vivo; conditions: gavage, 100 mg/kg; for AUC: trapezoidal rule
Description: Adult male Munich-Wistar rats (250 g, Charles River Laboratories) received by gavage a suspension of either HMP or LMP LBA in polyethylene glycol 400 at 100 mg/kg or 100 mg/kg of an equal mass of the HMP and LMP forms in solution at pH 7.5. Non-compartmental pharmacokinetics were determined and appear below in Table 3.

rats and guinea pig = assay: Inhibition of acetic acid colonic inflammation in rats and guinea pig; assay type: in vivo; conditions: po; i.g.
Source text: (§1) A series of tests were run to determine the in vitro and in vivo pharmacology properties of the HMP LBA of this invention. A summary of the results of these tests appear below.
Inhibition of acetic acid colonic inflammation in rats and guinea pig

[3] = tested on: human neutrophil adhesion to LTB4-stimulated umbilical vein endothelial cells; assay: Inhibition of human neutrophil adhesion to LTB4-stimulated umbilical vein endothelial cells; assay type: cell-based
Source text: as §1
Inhibition of human neutrophil adhesion to LTB4-stimulated umbilical vein endothelial cells

[4] = tested on: patients with metastatic renal carcinoma; conditions: for number of doses of IL-2 that could be tolerated, as related to the dose of the LBA: FIG. 2, p<0.05; for number of doses of IL-2 that could be tolerated, as related to the plasma level of the LBA: FIG. 3, p<0.03
Description: PROLEUKIN® IL-2 is administered to the patient in accordance with the labeling instructions (in brief, 600,000 IU/kg every 8 hours as tolerated). […] Therefore, 16 doses of the LA compound would be given during this same five-day period. […] These two courses constitute one cycle of IL-2.
Accordingly, the number of doses of IL-2 that can be given constitutes the single best measure of the tolerability of IL-2. The response rate, as measured by tumor shrinkage or disappearance, is the measure of antitumor activity.
The scheduled dosing regimen of IL-2 was 3× daily for a total of 14 doses over 5 days, followed by 9 days without IL-2, and then a repeat of the initial 14 doses over 5 days. The dose of IL-2 was 600,000 IU/kg administered intravenously every 8 hours.

[5] = tested on: LTA4 conversion into LTB4; assay: Inhibition of LTA4 conversion into LTB4; assay type: biochemical
Source text: as §1
Inhibition of LTA4 conversion into LTB4

guinea pigs [6] = assay: Inhibition of LTB4 chemotaxis in guinea pigs; assay type: in vivo, guinea pig; conditions: Cavia porcellus, po; i.g.
Source text: as §1
Inhibition of LTB4 chemotaxis in guinea pigs

[7] = tested on: LTB4-induced neutrophil granulation; assay: Inhibition of LTB4-induced neutrophil granulation; assay type: cell-based
Source text: as §1
Inhibition of LTB4-induced neutrophil granulation

LTB4 chemotaxis = assay: Inhibition of LTB4 chemotaxis; assay type: cell-based
Source text: as §1
Inhibition of LTB4 chemotaxis

guinea pig ear = assay: Inhibition of calcium ionophore dermal inflammation in the guinea pig ear; conditions: in vivo
Source text: as §1
Inhibition of calcium ionophore dermal inflammation in the guinea pig ear

guinea pigs [8] = assay: Inhibition of 12 (R)-HETE in guinea pigs; assay type: in vivo, guinea pig; conditions: Cavia porcellus, po; i.g.
Source text: as §1
Inhibition of 12 (R)—HETE in guinea pigs

LTB4 synthesis = assay: Inhibition of LTB4 synthesis; assay type: biochemical
Source text: as §1
Inhibition of LTB4 synthesis

Compound: CCCc1c(OCCCOc2ccc(C(C)=O)c(OC)c2CCC)ccc2c1OC(C(=O)O)CC2 (racemic) [LMP LBA, (±)-7-[3-(4-acetyl-3-methoxy-2-propylphenoxy)-propoxy]3,4-dihydro-8-propyl-2H-1-benzopyran-2-carboxylic acid]
- Dissolution (%) ([1]; pH 1.2): 0%
- AUC of dissolution over the range of pH ([1]; listed as LMP): 284 %·pH units
- Dissolution (%) ([1]; pH 3.0): 0%
- Dissolution (%) ([1]; pH 4.5): 0%
- Dissolution (%) ([1]; pH 5.0, listed as LMP): 20%
- Dissolution (%) ([1]; pH 5.5, listed as LMP): 48%
- Dissolution (%) ([1]; pH 6.0, listed as LMP): 82%
- Dissolution (%) ([1]; pH 6.5, listed as LMP): 96%
- Dissolution (%) ([1]; pH 7.0, listed as LMP): 99%
- Dissolution (%) ([1]; pH 7.5): 100%
- tolerability (hepatotoxicity) (Human subjects; 150 mg daily for up to 14 consecutive days (total target dose 2100 mg)): not well tolerated
- subjects withdrawn from dosing because of adverse changes in alanine aminotransferase levels (Human subjects; 60 and 150 mg/day): 6/6
- Peak Change from Baseline Alanine Aminotransferase (multiple) (Human subjects; daily dose 60 mg, cumulative 300 mg over 5 days): 2.5 multiple
- Peak Change from Baseline Alanine Aminotransferase (multiple) (Human subjects; daily dose 150 mg, cumulative 750 mg over 5 days, listed as LMP): 2.5 multiple
- Tmax ([2]; listed as LMP): 0.7 h
- Cmax ([2]; male, Munich-Wistar, blood, po, read-out: Cmax): 10400 ng/mL
- AUC ([2]; male, Munich-Wistar, blood, po, read-out: AUC): 57000 ng·h/mL

Compound: CCCc1c(OCCCOc2ccc(C(C)=O)c(OC)c2CCC)ccc2c1OC(C(=O)O)CC2 (racemic) [HMP LBA, (±) 7-[3-(4-acetyl-3-methoxy-2-propylphenoxy)propoxy]-3,4-dihydro-8-propyl-2H-1-benzopyran-2-carboxylic acid]
- ED50 (rats and guinea pig): 20 mg/kg
- Inhibition of human neutrophil adhesion to LTB4-stimulated umbilical vein endothelial cells, range [3]: 0.3 to 1.0 µM
- number of doses of IL-2 that could be tolerated, as related to the dose of the LBA ([4]; FIG. 4): rose
- number of doses of IL-2 that could be tolerated, as related to the dose of the LBA ([4]; FIG. 4, listed as LBA): increases
- number of doses of IL-2 that could be tolerated, as related to the plasma level of the LBA [4]: rose
- number of doses of IL-2 that could be tolerated, as related to the plasma level of the LBA ([4]; listed as LBA): increases
- frequency of serious IL-2 events ([4]; HMP LBA doses at or above 250 mg/day, 5/27): 19%
- frequency of serious IL-2 events ([4]; HMP LBA doses of <250 mg/day, 13 events in 35 patients): 38%
- frequency of IL-2 induced serious adverse clinical events as total exposure to IL-2 increased ([4]; coadministration of HMP LBA, FIG. 4): significantly declined
- response rate to treatment with IL-2 under LBA treatment ([4]; human, in vivo): not diminished
- tolerability ([4]; oral, 75-900 mg/day, co-administered with IL-2): well tolerated
- maximal tolerated dose ([4]; oral, co-administered with IL-2, 62 subjects): > 900 mg/day
- concentration in the plasma as a function of dose ([4]; p<0.02): rose linearly in a dose-proportional manner
- IC50 [5]: 20 µM
- ED50 (guinea pigs [6]): 0.6 mg/kg
- Inhibition of LTB4-induced neutrophil granulation, range [7]: 1 to 3 µM
- Inhibition of LTB4 chemotaxis, range (LTB4 chemotaxis): 0.3 to 3.0 µM
- ED50, inhibition of calcium ionophore dermal inflammation in the guinea pig ear (guinea pig ear): 0.7 mg/ear
- AUC of dissolution over the range of pH ([1]; listed as HMP): 163 %·pH units
- Dissolution (%) ([1]; pH 5.0, listed as HMP): 6%
- Dissolution (%) ([1]; pH 5.5, listed as HMP): 18%
- Dissolution (%) ([1]; pH 6.0, listed as HMP): 29%
- Dissolution (%) ([1]; pH 6.5, listed as HMP): 50%
- Dissolution (%) ([1]; pH 7.0, listed as HMP): 81%
- ED50 (guinea pigs [8]): 20 mg/kg
- IC50 (LTB4 synthesis): 2.1 µM
- Peak Change from Baseline Alanine Aminotransferase (multiple) (Human subjects; daily dose 75 mg, cumulative 375 mg over 5 days): 1 multiple
- Peak Change from Baseline Alanine Aminotransferase (multiple) (Human subjects; daily dose 100 mg, cumulative 500 mg over 5 days): 1 multiple
- Peak Change from Baseline Alanine Aminotransferase (multiple) (Human subjects; daily dose 125 mg, cumulative 625 mg over 5 days): 2 multiple
- Peak Change from Baseline Alanine Aminotransferase (multiple) (Human subjects; daily dose 150 mg, cumulative 750 mg over 5 days, listed as HMP): 2 multiple
- Peak Change from Baseline Alanine Aminotransferase (multiple) (Human subjects; daily dose 175 mg, cumulative 875 mg over 5 days): 2 multiple
- Peak Change from Baseline Alanine Aminotransferase (multiple) (Human subjects; daily dose 200 mg, cumulative 1000 mg over 5 days): 1 multiple
- Peak Change from Baseline Alanine Aminotransferase (multiple) (Human subjects; daily dose 225 mg, cumulative 1125 mg over 5 days): 0 multiple
- Peak Change from Baseline Alanine Aminotransferase (multiple) (Human subjects; daily dose 300 mg, cumulative 1500 mg over 5 days): −.5 multiple
- Peak Change from Baseline Alanine Aminotransferase (multiple) (Human subjects; daily dose 450 mg, cumulative 2250 mg over 5 days): 0 multiple
- Peak Change from Baseline Alanine Aminotransferase (multiple) (Human subjects; daily dose 600 mg, cumulative 3000 mg over 5 days): 2 multiple
- Peak Change from Baseline Alanine Aminotransferase (multiple) (Human subjects; daily dose 750 mg, cumulative 3750 mg over 5 days): 1 multiple
- Peak Change from Baseline Alanine Aminotransferase (multiple) (Human subjects; daily dose 900 mg, cumulative 4500 mg over 5 days): 1 multiple
- doses administered without excessive hepatotoxicity (Human subjects; humans, 4500 mg over five days): up to 900 mg/day
- tolerability (Human subjects; intermittent dosing: 5 days, 9 days without exposure, 5 days, total exposure 9000 mg): improved even further
- Cmax ([2]; listed as HMP): 13000 ng/mL
- Tmax ([2]; listed as HMP): 2.0 h
- AUC ([2]; listed as HMP): 65000 ng·h/mL

Compound: des-alanyl-1, serine-125 human interleukin-2 [IL-2]
- objective response rate ([4]; patients with metastatic renal cell cancer, after a single course of treatment with IL-2): 10-15%
